# According to patent US20020048549A1, “Radioactive transition metal nitride heterocomplex” (priority 1996, published 2002):
# Where two headings read alike, the source gives them in different places.
# Columns and labels:
# [1] = Stability of the complex / its solution after preparation; format: physicochemical; settings: reaction solution after preparation
# Procedure: In a mixture of 0.6 ml of ethanol and […] ( 1 mol/l) of an aqueous HCl solution were dissolved 5 mg of SDH and 1.5 mg of PNP, followed by adding thereto a physiologically acceptable ^99mTcO4^− solution ( 0.5 ml, 50 MBq). The resulting mixture was heated at 80° C. for 20 minutes and then cooled to 40° C., after which 0.25 ml of HCO3^−/CO3^2− buffer was added thereto to adjust the pH at about 8.0. Subsequently, a solution of 0.5 mg of βglu in 1.5 ml of water was added. The complex finally obtained was analyzed by […] and HPLC. […] The radiochemical purity of the final complex was higher than 95%. […]
# In a mixture of 0.6 ml of ethanol and […] ( 1 mol/l) of an aqueous HCl solution were dissolved 5 mg of SDH and 1.5 mg of PNP, followed by adding thereto a physiologically acceptable ^99mTcO4 solution ( 0.5 ml, 50 MBq). […] The complex finally obtained was analyzed by HTLC and HPLC. […]
# In a mixture of 0.6 ml of ethanol and 0.1 mg (1 mol/l) of an aqueous HCl solution were dissolved 5 mg of SDH and 1.5 mg of PNP, followed by adding thereto a physiologically acceptable ^99mTcO4^− solution (0.5 ml, 50 MBq). […] The complex finally obtained was analyzed by HTLC and HPLC. […]
# [2] = Biodistribution of 99mTc(N)(X)(DTC)+ heterocomplexes in rats; format: in vivo, male Spraque-Dawley rats (SD rats)
# Procedure: The biodistribution of a ^99mTc nitride heterocomplex represented by the general formula ^99mTc(N)(X)(Y) was investigated as follows: ^99mTc nitride heterocomplexes were synthesized using DTC as a bidentate ligand Y and each of the diphosphine compounds X described below, and the biodistribution in rats of each heterocomplex was investigated.
# Before being injected into rats, the contents of the vial were diluted with phosphate buffer (0.1 mol/dm^3, pH=7.06) containing 10% Tween 80 ([…]). The complexes were stable in the solutions and in human plasma for at least 6 hours.
# The biodistribution was measured using male Spraque-Dawley rats (SD rats) weighing 200 to 250 g. After 24 hours fasting, the rats were put under intraperitoneal anesthesia and given an injection in the jugular vein. Then, the organs were excised from the rats at different intervals of time, washed and then weighed. In addition, blood samples were collected and then weighed. The data on the biodistribution are expressed as the mean±significant difference of the percentage of radioactivity level per gram of the organ weight based on the dose of radioactivity, (% dose/g). The measurement was carried out using groups of 5 rats each.
structure (smiles),measurement,setting,value
CCON(CC)C1=[S+][99Tc]2(#[N])([S]1)[PH](c1ccccc1)(c1ccccc1)CCN(CC)CC[PH]2(c1ccccc1)c1ccccc1 [Example 4],stability of the complex / solution of the complex,[1],stable
COCCC[P]1(CCCOC)CCN(CCOC)CC[P](CCCOC)(CCCOC)[99Tc+]12(#[N])[NH]N(C)C(SC)=[S]2 [^99mTc(N)(PNP3)(DTC)^+],Bone % dose/g,[2],0.198 ± 0.03 % dose/g
same,Heart % dose/g,[2],2.704 ± 0.03 % dose/g
same,Liver % dose/g,[2],1.5 ± 0.02 % dose/g
same,Spleen % dose/g,[2],1.686 ± 0.03 % dose/g
same,Blood % dose/g,[2]; 0 min after injection,1.149 ± 0.04 % dose/g
same,Brain % dose/g,[2]; 0 min after injection,0.096 ± 0.00 % dose/g
same,Intestine % dose/g,[2]; 0 min after injection,2.578 ± 0.350 % dose/g
same,Kidney % dose/g,[2]; 0 min after injection,8.289 ± 0.03 % dose/g
same,Lung % dose/g,[2]; 0 min after injection,2.133 ± 0.03 % dose/g
same,Muscle % dose/g,[2]; 0 min after injection,0.232 ± 0.07 % dose/g
same,Stomach % dose/g,[2]; 0 min after injection,1.121 ± 0.01 % dose/g
same,Blood % dose/g,[2]; 2 min after injection,0.421 ± 0.10 % dose/g
same,Bone % dose/g,[2]; 2 min after injection,2.242 ± 0.02 % dose/g
same,Brain % dose/g,[2]; 2 min after injection,0.035 ± 0.01 % dose/g
same,Heart % dose/g,[2]; 2 min after injection,3.007 ± 0.16 % dose/g
same,Intestine % dose/g,[2]; 2 min after injection,4.188 ± 0.60 % dose/g
same,Kidney % dose/g,[2]; 2 min after injection,9.676 ± 0.620 % dose/g
same,Liver % dose/g,[2]; 2 min after injection,2.778 ± 0.06 % dose/g
same,Lung % dose/g,[2]; 2 min after injection,0.995 ± 0.17 % dose/g
same,Muscle % dose/g,[2]; 2 min after injection,0.264 ± 0.09 % dose/g
same,Spleen % dose/g,[2]; 2 min after injection,1.215 ± 0.1 % dose/g
same,Stomach % dose/g,[2]; 2 min after injection,0.740 ± 0.02 % dose/g
same,Blood % dose/g,[2]; 10 min after injection,0.147 ± 0.02 % dose/g
same,Bone % dose/g,[2]; 10 min after injection,0.204 ± 0.00 % dose/g
same,Brain % dose/g,[2]; 10 min after injection,0.019 ± 0.00 % dose/g
same,Heart % dose/g,[2]; 10 min after injection,2.506 ± 0.10 % dose/g
same,Intestine % dose/g,[2]; 10 min after injection,10.959 ± 1.64 % dose/g
same,Kidney % dose/g,[2]; 10 min after injection,6.559 ± 0.928 % dose/g
same,Liver % dose/g,[2]; 10 min after injection,1.719 ± 0.14 % dose/g
same,Lung % dose/g,[2]; 10 min after injection,0.725 ± 0.104 % dose/g
same,Muscle % dose/g,[2]; 10 min after injection,0.252 ± 0.01 % dose/g
same,Spleen % dose/g,[2]; 10 min after injection,0.856 ± 0.12 % dose/g
same,Stomach % dose/g,[2]; 10 min after injection,0.852 ± 0.118 % dose/g
same,Blood % dose/g,[2]; 30 min after injection,0.098 ± 0.01 % dose/g
same,Bone % dose/g,[2]; 30 min after injection,0.230 ± 0.04 % dose/g
same,Brain % dose/g,[2]; 30 min after injection,0.012 ± 0.00 % dose/g
same,Heart % dose/g,[2]; 30 min after injection,2.551 ± 0.10 % dose/g
same,Intestine % dose/g,[2]; 30 min after injection,10.201 ± 1.28 % dose/g
same,Kidney % dose/g,[2]; 30 min after injection,5.354 ± 1.00 % dose/g
same,Liver % dose/g,[2]; 30 min after injection,0.732 ± 0.08 % dose/g
same,Lung % dose/g,[2]; 30 min after injection,0.446 ± 0.00 % dose/g
same,Muscle % dose/g,[2]; 30 min after injection,0.273 ± 0.05 % dose/g
same,Spleen % dose/g,[2]; 30 min after injection,0.550 ± 0.06 % dose/g
same,Stomach % dose/g,[2]; 30 min after injection,1.511 ± 0.39 % dose/g
same,Blood % dose/g,[2]; 1 hr after injection,0.071 ± 0.00 % dose/g
same,Bone % dose/g,[2]; 1 hr after injection,0.099 ± 0.00 % dose/g
same,Brain % dose/g,[2]; 1 hr after injection,0.014 ± 0.00 % dose/g
same,Heart % dose/g,[2]; 1 hr after injection,2.155 ± 0.29 % dose/g
same,Intestine % dose/g,[2]; 1 hr after injection,5.447 ± 0.87 % dose/g
same,Kidney % dose/g,[2]; 1 hr after injection,4.127 ± 0.178 % dose/g
same,Liver % dose/g,[2]; 1 hr after injection,0.500 ± 0.01 % dose/g
same,Lung % dose/g,[2]; 1 hr after injection,0.329 ± 0.05 % dose/g
same,Muscle % dose/g,[2]; 1 hr after injection,0.236 ± 0.04 % dose/g
same,Spleen % dose/g,[2]; 1 hr after injection,0.238 ± 0.02 % dose/g
same,Stomach % dose/g,[2]; 1 hr after injection,0.892 ± 0.085 % dose/g
same,Blood % dose/g,[2]; 2 hr after injection,0.049 ± 0.00 % dose/g
same,Bone % dose/g,[2]; 2 hr after injection,0.121 ± 0.00 % dose/g
same,Brain % dose/g,[2]; 2 hr after injection,0.009 ± 0.00 % dose/g
same,Heart % dose/g,[2]; 2 hr after injection,2.721 ± 0.06 % dose/g
same,Intestine % dose/g,[2]; 2 hr after injection,2.720 ± 0.11 % dose/g
same,Kidney % dose/g,[2]; 2 hr after injection,3.139 ± 0.20 % dose/g
same,Liver % dose/g,[2]; 2 hr after injection,0.164 ± 0.04 % dose/g
same,Lung % dose/g,[2]; 2 hr after injection,0.312 ± 0.2 % dose/g
same,Muscle % dose/g,[2]; 2 hr after injection,0.268 ± 0.88 % dose/g
same,Spleen % dose/g,[2]; 2 hr after injection,0.300 ± 0.05 % dose/g
same,Stomach % dose/g,[2]; 2 hr after injection,1.521 ± 0.50 % dose/g
same,Blood % dose/g,[2]; 4 hr after injection,0.030 ± 0.00 % dose/g
same,Bone % dose/g,[2]; 4 hr after injection,0.079 ± 0.01 % dose/g
same,Brain % dose/g,[2]; 4 hr after injection,0.009 ± 0.00 % dose/g
same,Heart % dose/g,[2]; 4 hr after injection,2.503 ± 0.13 % dose/g
same,Intestine % dose/g,[2]; 4 hr after injection,1.810 ± 0.716 % dose/g
same,Kidney % dose/g,[2]; 4 hr after injection,2.536 ± 0.12 % dose/g
same,Liver % dose/g,[2]; 4 hr after injection,0.155 ± 0.00 % dose/g
same,Lung % dose/g,[2]; 4 hr after injection,0.219 ± 0.01 % dose/g
same,Muscle % dose/g,[2]; 4 hr after injection,0.245 ± 0.031 % dose/g
same,Spleen % dose/g,[2]; 4 hr after injection,0.195 ± 0.02 % dose/g
same,Stomach % dose/g,[2]; 4 hr after injection,0.485 ± 0.07 % dose/g
same,elimination from kidney and liver,[2]; rats,relatively rapidly eliminated
same,washout from lung and blood,[2]; rats,rapidly washed out
same,accumulation in heart,"[2]; rats, throughout the measurement",very large amount
CCN1CC[PH](c2ccccc2)(c2ccccc2)[99Tc]2(#[N])([O]C(=O)c3ccccc3[S]2)[PH](c2ccccc2)(c2ccccc2)CC1 [Example 3],stability of the complex / solution of the complex,[1],stable
